# Measurements taken from patent US20180016593A1, “HERBICIDE-RESISTANT SUNFLOWER PLANTS, POLYNUCLEOTIDES ENCODING HERBICIDE-RESISTANT ACETOHYDROXYACID SYNTHASE LARGE SUBUNIT PROTEINS, AND METHODS OF USE” (priority 2005, published 2018).
# Like-named read-outs stand apart in the source and are kept apart here.
# Assays:
# Format in all cases: in vivo, Helianthus annuus
# [1] = system: sunflower lines carrying the A205V mutation; conditions: 14 DAT; for Phytotoxicity Index, Mean: three A205V genotypes
# Procedure: (§1) A greenhouse study was conducted to quantify and contrast the imazapir sensivity of the mutants A122T and A205V in different genetic backgrounds at the whole plant level in sunflower. Seeds of the different sunflower lines that were used in this study were obtained under field conditions.
# (§2) Seeds were sown in Petri dishes and, after germination, plantlets were transplanted to pots of 10 cm of diameter in a potting media consisting of equal parts of vermiculite, soil and sand. Plants were grown in a greenhouse under natural light conditions supplemented with 400 W sodium halide lamps to provide a 16 hrs daylength. Day/night temperatures were 25 and 20° C., respectively. At the V2 stage 10 plants of each genotype were randomly assigned to each treatment consisting of […] imazapir doses (0, 40, 80, 160, 240, 320, 400 and 480 g ai/ha), and a zero-time biomass determination. Experiment was arranged as a randomized block design with a full factorial (sunflower line×treatment) arrangement of treatments and 10 replications.
# (§3) On the day of herbicide application ten plants of each genotype were cut at the cotyledonal node and dried at 60° C. for 48 hrs zero-time for dried weight determination.
# (§4) Height was determined as the distance between the cotyledonal node and the apex of each plant. For root biomass determination, each plant was taken from the pot and the potting media was washed out from the roots. Above ground biomass data from each line were converted to biomass accumulation after application by subtracting the appropriate average zero-time biomass from each sample. Dry biomass data were converted to percentages of the untreated control plants within each line to allow direct comparisons between groups. […]
# [2] = system: sunflower TH11 (Hybrid, A122T); conditions: 14 DAT
# Procedure: as §1, §2, §3, §4
# [3] = system: sunflower TH12 (Restorer Line, A122T); conditions: 14 DAT
# Procedure: as §1, §2, §3, §4
# [4] = six A205V genotypes, 6x (480 g ai/ha)
smiles,measurement,setting,value
CC(C)C1(C)N=C(c2ncccc2C(=O)O)NC1=O (centres unmarked) [imazapyr],"root dry weight, Mean","[1]; six A205V genotypes, 5x (400 g ai/ha)",30.7 % of untreated plots
same,"biomass accumulation, Mean",[1]; [4],30.0 % of untreated plots
same,"plant height, Mean",[1]; [4],30.2 % of untreated plots
same,"root dry weight, Mean",[1]; [4],24.4 % of untreated plots
same,"Phytotoxicity Index, Mean",[1]; 2x (160 g ai/ha),2.2
same,"Phytotoxicity Index, Mean",[1]; 3x (240 g ai/ha),5.1
same,"Phytotoxicity Index, Mean",[1]; 4x (320 g ai/ha),7.4
same,"Phytotoxicity Index, Mean",[1]; 5x (400 g ai/ha),8.2
same,"Phytotoxicity Index, Mean",[1]; 6x (480 g ai/ha),8.2
same,Phytotoxicity Index,[2]; 0.5x (40 g ai/ha),0.4
same,biomass accumulation (above ground dry weight),[2]; 0.5x (40 g ai/ha),96.6 % of untreated plots
same,plant height,[2]; 0.5x (40 g ai/ha),100.4 % of untreated plots
same,root dry weight,[2]; 0.5x (40 g ai/ha),100 % of untreated plots
same,Phytotoxicity Index,[2]; 1x (80 g ai/ha),0.4
same,biomass accumulation (above ground dry weight),[2]; 1x (80 g ai/ha),93.9 % of untreated plots
same,plant height,[2]; 1x (80 g ai/ha),99.9 % of untreated plots
same,root dry weight,[2]; 1x (80 g ai/ha),99.0 % of untreated plots
same,Phytotoxicity Index,[2]; 2x (160 g ai/ha),0.4
same,biomass accumulation (above ground dry weight),[2]; 2x (160 g ai/ha),81.6 % of untreated plots
same,plant height,[2]; 2x (160 g ai/ha),92.0 % of untreated plots
same,root dry weight,[2]; 2x (160 g ai/ha),86.1 % of untreated plots
same,Phytotoxicity Index,[2]; 3x (240 g ai/ha),0.5
same,biomass accumulation (above ground dry weight),[2]; 3x (240 g ai/ha),75.8 % of untreated plots
same,plant height,[2]; 3x (240 g ai/ha),90.5 % of untreated plots
same,root dry weight,[2]; 3x (240 g ai/ha),81.5 % of untreated plots
same,Phytotoxicity Index,[2]; 4x (320 g ai/ha),1.0
same,biomass accumulation (above ground dry weight),[2]; 4x (320 g ai/ha),75.0 % of untreated plots
same,plant height,[2]; 4x (320 g ai/ha),90.8 % of untreated plots
same,root dry weight,[2]; 4x (320 g ai/ha),72.6 % of untreated plots
same,Phytotoxicity Index,[2]; 5x (400 g ai/ha),2.0
same,biomass accumulation (above ground dry weight),[2]; 5x (400 g ai/ha),60.1 % of untreated plots
same,plant height,[2]; 5x (400 g ai/ha),84.4 % of untreated plots
same,root dry weight,[2]; 5x (400 g ai/ha),68.9 % of untreated plots
same,Phytotoxicity Index,[2]; 6x (480 g ai/ha),2.5
same,biomass accumulation (above ground dry weight),[2]; 6x (480 g ai/ha),59.6 % of untreated plots
same,plant height,[2]; 6x (480 g ai/ha),84.4 % of untreated plots
same,root dry weight,[2]; 6x (480 g ai/ha),45.3 % of untreated plots
same,Phytotoxicity Index,[3]; 0.5x (40 g ai/ha),0.0
same,biomass accumulation (above ground dry weight),[3]; 0.5x (40 g ai/ha),100.0 % of untreated plots
same,plant height,[3]; 0.5x (40 g ai/ha),100.0 % of untreated plots
same,root dry weight,[3]; 0.5x (40 g ai/ha),99.4 % of untreated plots
same,Phytotoxicity Index,[3]; 1x (80 g ai/ha),0.0
same,biomass accumulation (above ground dry weight),[3]; 1x (80 g ai/ha),99.1 % of untreated plots
same,plant height,[3]; 1x (80 g ai/ha),100.0 % of untreated plots
same,root dry weight,[3]; 1x (80 g ai/ha),100 % of untreated plots
same,Phytotoxicity Index,[3]; 2x (160 g ai/ha),0.0
same,biomass accumulation (above ground dry weight),[3]; 2x (160 g ai/ha),97.0 % of untreated plots
same,plant height,[3]; 2x (160 g ai/ha),101.8 % of untreated plots
same,root dry weight,[3]; 2x (160 g ai/ha),100 % of untreated plots
same,Phytotoxicity Index,[3]; 3x (240 g ai/ha),0.0
same,biomass accumulation (above ground dry weight),[3]; 3x (240 g ai/ha),96.1 % of untreated plots
same,plant height,[3]; 3x (240 g ai/ha),97.0 % of untreated plots
same,root dry weight,[3]; 3x (240 g ai/ha),100.0 % of untreated plots
same,Phytotoxicity Index,[3]; 4x (320 g ai/ha),0.0
same,biomass accumulation (above ground dry weight),[3]; 4x (320 g ai/ha),84.3 % of untreated plots
same,plant height,[3]; 4x (320 g ai/ha),92.1 % of untreated plots
same,root dry weight,[3]; 4x (320 g ai/ha),74.5 % of untreated plots
same,Phytotoxicity Index,[3]; 5x (400 g ai/ha),0.0
same,biomass accumulation (above ground dry weight),[3]; 5x (400 g ai/ha),77.5 % of untreated plots
same,plant height,[3]; 5x (400 g ai/ha),84.8 % of untreated plots
same,root dry weight,[3]; 5x (400 g ai/ha),65.0 % of untreated plots
same,Phytotoxicity Index,[3]; 6x (480 g ai/ha),0.5
same,biomass accumulation (above ground dry weight),[3]; 6x (480 g ai/ha),70.7 % of untreated plots
same,plant height,[3]; 6x (480 g ai/ha),79.8 % of untreated plots
same,root dry weight,[3]; 6x (480 g ai/ha),57.8 % of untreated plots
